The target of the test is T1, human PAH with the R408W mutation (Homo sapiens, UniProt P00439, R408W).
T1 construct: expressed in transfected cells
T1 sequence (P00439 1-452 R408W): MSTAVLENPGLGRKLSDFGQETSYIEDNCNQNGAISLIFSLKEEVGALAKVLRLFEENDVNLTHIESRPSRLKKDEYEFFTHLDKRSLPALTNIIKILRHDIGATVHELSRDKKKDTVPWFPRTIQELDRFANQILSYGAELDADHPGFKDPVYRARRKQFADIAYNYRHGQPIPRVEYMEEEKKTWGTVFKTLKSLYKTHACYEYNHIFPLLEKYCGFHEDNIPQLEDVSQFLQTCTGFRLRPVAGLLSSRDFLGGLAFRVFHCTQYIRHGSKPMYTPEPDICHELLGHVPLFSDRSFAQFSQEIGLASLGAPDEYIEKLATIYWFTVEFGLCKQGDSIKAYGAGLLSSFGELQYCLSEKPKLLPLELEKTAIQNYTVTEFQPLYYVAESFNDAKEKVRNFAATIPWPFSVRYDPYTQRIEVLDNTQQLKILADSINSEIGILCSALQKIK
The experiment in a line: Cell Based Phenylalanine Flux Assay.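 Also: after compound treatment, cells received sepiapterin plus isotope-labelled Phenylalanine for 4 hours, then labelled Tyrosine in the medium was quantified, 10-point 2-fold dilution series run in duplicate.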 The conditions noted are these: A375 cells expressing human R408W PAH; 24 hrs compound incubation; 13C-Tyrosine by LC-MS; average where tested multiple times; read-out: AC50.
Broadly, the AC50 is the concentration at which the activity in the assay is half-maximal. Turning to `O=C(c1nnc(-c2cccnc2)o1)N1CCc2[nH]cnc2[C@H]1c1cc2cccc(F)n2n1` [Example 1522, (S)-(4-(7-fluoropyrazolo[1,5-a]pyridin-2-yl)-6,7-dihydro-1H-imidazo[4,5-c]pyridin-5(4H)-yl)(5-(pyridin-3-yl)-1,3,4-oxadiazol-2-yl)methanone], the AC50 was below 0.5 µM.

On to `O=C(c1nnc(-c2cccnc2)o1)N1CCc2[nH]cnc2[C@@H]1c1cc2cccc(F)n2n1` [Example 1523, (R)-(4-(7-fluoropyrazolo[1,5-a]pyridin-2-yl)-6,7-dihydro-1H-imidazo[4,5-c]pyridin-5(4H)-yl)(5-(pyridin-3-yl)-1,3,4-oxadiazol-2-yl)methanone], for which the AC50 was above 5 µM.

For the molecule `COc1ccc(-c2nnc(C(=O)N3CCc4[nH]cnc4[C@@H]3c3cc4cccc(F)n4n3)o2)nc1` [Example 1524, (R)-(4-(7-fluoropyrazolo[1,5-a]pyridin-2-yl)-6,7-dihydro-1H-imidazo[4,5-c]pyridin-5(4H)-yl)(5-(5-methoxypyridin-2-yl)-1,3,4-oxadiazol-2-yl)methanone], the concentration at half-maximal activity (AC50) was above 5 µM.

Consider `COc1ccc(-c2nnc(C(=O)N3CCc4[nH]cnc4[C@H]3c3cc4cccc(F)n4n3)o2)nc1` [Example 1525, (S)-(4-(7-fluoropyrazolo[1,5-a]pyridin-2-yl)-6,7-dihydro-1H-imidazo[4,5-c]pyridin-5(4H)-yl)(5-(5-methoxypyridin-2-yl)-1,3,4-oxadiazol-2-yl)methanone], for which the AC50 lay in the range of 0.5 to 1 µM.

As for `Cn1nccc1-c1nnc(C(=O)N2CCc3[nH]cnc3[C@@H]2c2cc3cccc(F)n3n2)o1` [Example 1527, (R)-(4-(7-fluoropyrazolo[1,5-a]pyridin-2-yl)-6,7-dihydro-1H-imidazo[4,5-c]pyridin-5(4H)-yl)(5-(1-methyl-1H-pyrazol-5-yl)-1,3,4-oxadiazol-2-yl)methanone], the AC50 was above 5 µM.

In the case of `Cc1cnn(C)c1-c1nnc(C(=O)N2CCc3[nH]cnc3[C@H]2c2cc3cccc(F)n3n2)o1` [Example 1528, (S)-(5-(1,4-dimethyl-1H-pyrazol-5-yl)-1,3,4-oxadiazol-2-yl)(4-(7-fluoropyrazolo[1,5-a]pyridin-2-yl)-6,7-dihydro-1H-imidazo[4,5-c]pyridin-5(4H)-yl)methanone], the AC50 is below 0.5 µM.

For `Cc1cc(-c2nnc(C(=O)N3CCc4[nH]cnc4[C@@H]3c3cc4c(C(F)F)cccn4n3)o2)nn1C` [Example 1530, (R)-(4-(4-(difluoromethyl)pyrazolo[1,5-a]pyridin-2-yl)-6,7-dihydro-1H-imidazo(4,5-c]pyridin-5(4H)-yl)(5-(1,5-dimethyl-1H-pyrazol-3-yl)-1,3,4-oxadiazol-2-yl)methanone], the concentration at half-maximal activity (AC50) was above 5 µM.

Turning to `Cc1cc(-c2nnc(C(=O)N3CCc4[nH]cnc4[C@H]3c3cc4c(C(F)F)cccn4n3)o2)nn1C` [Example 1531, (S)-(4-(4-(difluoromethyl)pyrazolo[1,5-a]pyridin-2-yl)-6,7-dihydro-1H-imidazo[4,5-c]pyridin-5(4H)-yl)(5-(1,5-dimethyl-1H-pyrazol-3-yl)-1,3,4-oxadiazol-2-yl)methanone], the AC50 was below 0.5 µM.

Consider `Cn1nccc1-c1nnc(C(=O)N2CCc3[nH]cnc3[C@H]2c2cc3c(C(F)F)cccn3n2)o1` [Example 1532, (S)-(4-(4-(difluoromethyl)pyrazolo[1,5-a]pyridin-2-yl)-6,7-dihydro-1H-imidazo[4,5-c]pyridin-5(4H)-yl)(5-(1-methyl-1H-pyrazol-5-yl)-1,3,4-oxadiazol-2-yl)methanone], for which the AC50 is below 0.5 µM.

As to `O=C(c1nnc(-c2cnccn2)o1)N1CCc2[nH]cnc2[C@@H]1c1cc2cccc(C(F)F)n2n1` [Example 1534, (R)-(4-(7-(difluoromethyl)pyrazolo[1,5-a]pyridin-2-yl)-6,7-dihydro-1H-imidazo[4,5-c]pyridin-5(4H)-yl)(5-(pyrazin-2-yl)-1,3,4-oxadiazol-2-yl)methanone], the half-maximal activity concentration (AC50) lay within 1 to 5 µM.

Turning to `Cc1cc(-c2nnc(C(=O)N3CCc4[nH]cnc4[C@H]3c3cc4cccc(C(F)F)n4n3)o2)nn1C` [Example 1537, (S)-(4-(7-(difluoromethyl)pyrazolo[1,5-a]pyridin-2-yl)-6,7-dihydro-1H-imidazo[4,5-c]pyridin-5(4H)-yl)(5-(1,5-dimethyl-1H-pyrazol-3-yl)-1,3,4-oxadiazol-2-yl)methanone], the AC50 was in the range of 0.5 to 1 µM.

For `O=C(c1nnc(-c2cnn(C(F)(F)F)c2)o1)N1CCc2[nH]cnc2[C@H]1c1cc2c(C(F)(F)F)cccn2n1` [Example 1538, (S)-(5-(1-(trifluoromethyl)-1H-pyrazol-4-yl)-1,3,4-oxadiazol-2-yl)(4-(4-(trifluoromethyl)pyrazolo[1,5-a]pyridin-2-yl)-6,7-dihydro-1H-imidazo[4,5-c]pyridin-5(4H)-yl)methanone], the half-maximal activity concentration (AC50) is 0.5 to 1 µM.

Take `O=C(c1nnc(-c2cnn(C(F)(F)F)c2)o1)N1CCc2[nH]cnc2[C@H]1c1cc2c(F)cccn2n1` [Example 1540, (S)-(4-(4-fluoropyrazolo[1,5-a]pyridin-2-yl)-6,7-dihydro-1H-imidazo[4,5-c]pyridin-5(4H)-yl)(5-(1-(trifluoromethyl)-1H-pyrazol-4-yl)-1,3,4-oxadiazol-2-yl)methanone]: the AC50 fell in the range of 0.5 to 1 µM.

Consider `O=C(c1nnc(-c2ccn(C(F)(F)F)n2)o1)N1CCc2[nH]cnc2[C@H]1c1cc2cccc(C(F)(F)F)n2n1` [Example 1542, (S)-(5-(1-(trifluoromethyl)-1H-pyrazol-3-yl)-1,3,4-oxadiazol-2-yl)(4-(7-(trifluoromethyl)pyrazolo[1,5-a]pyridin-2-yl)-6,7-dihydro-1H-imidazo[4,5-c]pyridin-5(4H)-yl)methanone], for which the concentration at half-maximal activity (AC50) lay in the range of 0.5 to 1 µM.

On to `O=C(c1nnc(-c2ccn(C(F)(F)F)n2)o1)N1CCc2[nH]cnc2[C@H]1c1cc2cccc(C(F)F)n2n1` [Example 1544, (S)-(4-(7-(difluoromethyl)pyrazolo[1,5-a]pyridin-2-yl)-6,7-dihydro-1H-imidazo[4,5-c]pyridin-5(4H)-yl)(5-(1-(trifluoromethyl)-1H-pyrazol-3-yl)-1,3,4-oxadiazol-2-yl)methanone], for which the AC50 is below 0.5 µM.

Turning to `O=C(c1nnc(-c2ccn(C(F)(F)F)n2)o1)N1CCc2[nH]cnc2[C@@H]1c1cc2cccc(C(F)F)n2n1` [Example 1545, (R)-(4-(7-(difluoromethyl)pyrazolo[1,5-a]pyridin-2-yl)-6,7-dihydro-1H-imidazo[4,5-c]pyridin-5(4H)-yl)(5-(1-(trifluoromethyl)-1H-pyrazol-3-yl)-1,3,4-oxadiazol-2-yl)methanone], the AC50 lay within 1 to 5 µM.

Regarding `CN(C)Cc1ccc2c(C(=O)N3CCc4[nH]cnc4[C@H]3c3cc4c(C(F)(F)F)cccn4n3)cnn2c1` [Example 1546, (S)-(6-((dimethylamino)methyl)pyrazolo[1,5-a]pyridin-3-yl)(4-(4-(trifluoromethyl)pyrazolo[1,5-a]pyridin-2-yl)-6,7-dihydro-1H-imidazo[4,5-c]pyridin-5(4H)-yl)methanone], the half-maximal activity concentration (AC50) was 0.5 to 1 µM.

With `CN(C)Cc1ccc2c(C(=O)N3CCc4[nH]cnc4[C@@H]3c3cc4c(C(F)(F)F)cccn4n3)cnn2c1` [Example 1547, (R)-(6-((dimethylamino)methyl)pyrazolo[1,5-a]pyridin-3-yl)(4-(4-(trifluoromethyl)pyrazolo[1,5-a]pyridin-2-yl)-6,7-dihydro-1H-imidazo[4,5-c]pyridin-5(4H)-yl)methanone], the half-maximal activity concentration (AC50) is above 5 µM.

Consider `COCc1ccc2c(C(=O)N3CCc4[nH]cnc4[C@H]3c3cc4c(C(F)(F)F)cccn4n3)cnn2c1` [Example 1548, (S)-(6-(methoxymethyl)pyrazolo[1,5-a]pyridin-3-yl)(4-(4-(trifluoromethyl)pyrazolo[1,5-a]pyridin-2-yl)-6,7-dihydro-1H-imidazo[4,5-c]pyridin-5(4H)-yl)methanone], for which the AC50 is 0.5 to 1 µM.

With `COCc1ccc2c(C(=O)N3CCc4[nH]cnc4[C@@H]3c3cc4c(C(F)(F)F)cccn4n3)cnn2c1` [Example 1549, (R)-(6-(methoxymethyl)pyrazolo[1,5-a]pyridin-3-yl)(4-(4-(trifluoromethyl)pyrazolo[1,5-a]pyridin-2-yl)-6,7-dihydro-1H-imidazo[4,5-c]pyridin-5(4H)-yl)methanone], the AC50 was in the range of 1 to 5 µM.

As for `O=C(c1cnn2cc(-c3ccccn3)ccc12)N1CCc2[nH]cnc2[C@@H]1c1cc2c(C(F)(F)F)cccn2n1` [Example 1551, (R)-(6-(pyridin-2-yl)pyrazolo[1,5-a]pyridin-3-yl)(4-(4-(trifluoromethyl)pyrazolo[1,5-a]pyridin-2-yl)-6,7-dihydro-1H-imidazo[4,5-c]pyridin-5(4H)-yl)methanone], the AC50 was 1 to 5 µM.

Regarding `CC(C)c1nnc(C(=O)N2CCc3[nH]cnc3[C@H]2c2cc3cccc(F)n3n2)o1` [Example 1555, (S)-(4-(7-fluoropyrazolo[1,5-a]pyridin-2-yl)-6,7-dihydro-1H-imidazo[4,5-c]pyridin-5(4H)-yl)(5-isopropyl-1,3,4-oxadiazol-2-yl)methanone], the AC50 fell in the range of 1 to 5 µM.

As for `Cc1cccn2nc([C@@H]3c4nc[nH]c4CCN3C(=O)c3nnc(C4CCC4)o3)cc12` [Example 1556, (S)-(5-cyclobutyl-1,3,4-oxadiazol-2-yl)(4-(4-methylpyrazolo[1,5-a]pyridin-2-yl)-6,7-dihydro-1H-imidazo[4,5-c]pyridin-5(4H)-yl)methanone], the concentration at half-maximal activity (AC50) was below 0.5 µM.
